Laboratory results reported in the supplement of paper PMC10307832.

Legend:
Assay in all cases: relative viability (nuclei count vs DMSO), 5 days (fraction); higher = more cells survive
AZD8055 + Pemetrexed = compound: COc1ccc(-c2ccc3c(N4CCOC[C@@H]4C)nc(N4CCOC[C@@H]4C)nc3n2)cc1CO [AZD8055] + Nc1nc2[nH]cc(CCc3ccc(C(=O)N[C@@H](CCC(=O)O)C(=O)O)cc3)c2c(=O)[nH]1 [Pemetrexed] (partner 0.2 µM)
Summary of the method: (§1)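 Lung cancer cell lines were seeded in 1536-well plates and dosed by pin tool the next day, with either a single drug or a fixed anchor-drug dose combined with five library-drug doses (not always all listed) spaced in √10 steps. Five days later, one step fixed the cells and stained their nuclei (final 0.05% Triton X-100, 1% formaldehyde, 1 ug/ml Hoechst), and nuclei were counted on 4× images. Relative viability is the nuclei count in treated wells divided by the count in vehicle wells, and each value is the median of duplicate plates.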

AZD8055 + OSI-027 = compound: COc1ccc(-c2ccc3c(N4CCOC[C@@H]4C)nc(N4CCOC[C@@H]4C)nc3n2)cc1CO [AZD8055] + COc1cccc2cc(-c3nc([C@H]4CC[C@H](C(=O)O)CC4)n4ncnc(N)c34)[nH]c12 [OSI-027] (partner 0.5 µM)
Summary of the method: as §1

AZD8055 + Foretinib = compound: COc1ccc(-c2ccc3c(N4CCOC[C@@H]4C)nc(N4CCOC[C@@H]4C)nc3n2)cc1CO [AZD8055] + COc1cc2c(Oc3ccc(NC(=O)C4(C(=O)Nc5ccc(F)cc5)CC4)cc3F)ccnc2cc1OCCCN1CCOCC1 [Foretinib] (partner 0.25 µM)
Summary of the method: as §1

AZD8055 + AZD7762 = compound: COc1ccc(-c2ccc3c(N4CCOC[C@@H]4C)nc(N4CCOC[C@@H]4C)nc3n2)cc1CO [AZD8055] + NC(=O)Nc1cc(-c2cccc(F)c2)sc1C(=O)N[C@H]1CCCNC1 [AZD7762] (partner 0.2 µM)
Summary of the method: as §1

Cell Line | relative viability (AZD8055 + Pemetrexed; first compound 0.01 µM) | relative viability (AZD8055 + Pemetrexed; first compound 0.03162 µM) | relative viability (AZD8055 + Pemetrexed; first compound 0.1 µM) | relative viability (AZD8055 + Pemetrexed; first compound 0.3162 µM) | relative viability (AZD8055 + Pemetrexed; first compound 1 µM) | relative viability (AZD8055 + OSI-027; first compound 0.01 µM) | relative viability (AZD8055 + OSI-027; first compound 0.03162 µM) | relative viability (AZD8055 + OSI-027; first compound 0.1 µM) | relative viability (AZD8055 + OSI-027; first compound 0.3162 µM) | relative viability (AZD8055 + OSI-027; first compound 1 µM) | relative viability (AZD8055 + Foretinib; first compound 0.01 µM) | relative viability (AZD8055 + Foretinib; first compound 0.03162 µM) | relative viability (AZD8055 + Foretinib; first compound 0.1 µM) | relative viability (AZD8055 + Foretinib; first compound 0.3162 µM) | relative viability (AZD8055 + Foretinib; first compound 1 µM) | relative viability (AZD8055 + AZD7762; first compound 0.01 µM) | relative viability (AZD8055 + AZD7762; first compound 0.03162 µM) | relative viability (AZD8055 + AZD7762; first compound 0.1 µM) | relative viability (AZD8055 + AZD7762; first compound 0.3162 µM) | relative viability (AZD8055 + AZD7762; first compound 1 µM)
COR-L 105 | 1.3 | 1.16 | 1.29 | 0.664 | 0.485 | 0.682 | 0.702 | 0.615 | 0.382 | 0.383 | 1.55 | 1.03 | 1.31 | 0.756 | 0.476 | – | – | – | – | –
LK-2 | 0.234 | 0.185 | 0.138 | 0.137 | 0.11 | 0.22 | 0.242 | 0.209 | 0.166 | 0.186 | 0.938 | 0.938 | 0.648 | 0.292 | 0.142 | 0.285 | 0.204 | 0.205 | 0.104 | 0.135
NCI-H727 | – | – | – | – | – | 0.674 | 0.604 | 0.49 | 0.351 | 0.409 | 0.713 | 0.89 | 0.717 | 0.307 | 0.394 | 0.727 | 0.574 | 0.528 | 0.434 | 0.338
RERF-LC-KJ | 0.51 | 0.499 | 0.428 | 0.396 | 0.373 | 0.587 | 0.671 | 0.522 | 0.387 | 0.362 | 0.963 | 0.754 | 0.771 | 0.535 | 0.392 | 1.26 | 1.08 | 0.659 | 0.402 | 0.434
NCI-H2023 | 0.229 | 0.205 | 0.16 | 0.0973 | 0.122 | 0.445 | 0.347 | 0.266 | 0.13 | 0.116 | 0.787 | 0.817 | 0.654 | 0.26 | 0.126 | – | – | – | – | –
NCI-H322M | 0.655 | 0.689 | 0.622 | 0.609 | 0.483 | 0.56 | 0.602 | 0.582 | 0.476 | 0.431 | 0.933 | 0.802 | 0.781 | 0.573 | 0.6 | 0.51 | 0.454 | 0.434 | 0.426 | 0.432
NCI-H1666 | 0.917 | 0.878 | 0.895 | 0.751 | 0.716 | 0.894 | 0.905 | 0.887 | 0.747 | 0.717 | 0.981 | 1 | 0.969 | 0.694 | 0.615 | 0.945 | 1.09 | 0.908 | 0.76 | 0.698
NCI-H1648 | 0.942 | 0.675 | 0.641 | 0.324 | 0.285 | 0.27 | 0.235 | 0.289 | 0.234 | 0.296 | – | – | – | – | – | 0.708 | 0.804 | 0.639 | 0.413 | 0.261
NCI-H2087 | 0.646 | 0.587 | 0.588 | 0.427 | 0.292 | 0.77 | 0.606 | 0.577 | 0.412 | 0.311 | 1.04 | 0.857 | 0.676 | 0.461 | 0.315 | 1.37 | 1.36 | 1.33 | 0.654 | 0.478
LU99A | 0.227 | 0.211 | 0.235 | 0.177 | 0.169 | 0.297 | 0.311 | 0.322 | 0.264 | 0.254 | 0.859 | 0.627 | 0.681 | 0.264 | 0.302 | 0.366 | 0.242 | 0.185 | 0.152 | 0.133
HCC-366 | 0.256 | 0.285 | 0.248 | 0.161 | 0.109 | 1.08 | 1.01 | 0.845 | 0.437 | 0.288 | 0.979 | 0.913 | 0.687 | 0.428 | 0.417 | 0.364 | 0.255 | 0.268 | 0.124 | 0.0821
EKVX | 0.476 | 0.436 | 0.389 | 0.322 | 0.289 | 0.753 | 0.745 | 0.665 | 0.51 | 0.411 | 0.872 | 1.25 | 0.731 | 0.702 | 0.367 | 0.783 | 0.594 | 0.605 | 0.375 | 0.29
NCI-H522 | 0.992 | 0.943 | 0.962 | 0.518 | 0.467 | 0.698 | 0.757 | 0.803 | 0.67 | 0.632 | – | – | – | – | – | 0.847 | 0.799 | 0.647 | 0.532 | 0.569
NCI-H1755 | 0.462 | 0.423 | 0.384 | 0.424 | 0.461 | 0.752 | 0.698 | 0.649 | 0.544 | 0.537 | 0.885 | 0.788 | 0.698 | 0.485 | 0.373 | 0.625 | 0.401 | 0.416 | 0.364 | 0.33
NCI-H647 | 0.207 | 0.155 | 0.133 | 0.166 | 0.122 | 0.514 | 0.624 | 0.568 | 0.315 | 0.193 | 1.18 | 0.941 | 0.61 | 0.405 | 0.229 | 0.397 | 0.338 | 0.391 | 0.157 | 0.1
LC-2-ad | 0.281 | 0.277 | 0.307 | 0.289 | 0.278 | 0.937 | 0.864 | 0.706 | 0.618 | 0.523 | 1.05 | 0.855 | 0.652 | 0.58 | 0.469 | 0.909 | 0.873 | 0.816 | 0.791 | 0.645
NCI-H1793 | 0.721 | 0.376 | 0.268 | 0.184 | 0.225 | 0.291 | 0.215 | 0.196 | 0.18 | 0.202 | 0.457 | 0.35 | 0.222 | 0.189 | 0.183 | 0.379 | 0.264 | 0.197 | 0.145 | 0.127
